≈ marks a conversion by molar mass, not a printed value.

The source of these data is ChEMBL document CHEMBL6087456 (J Med Chem, 2025).

Series [1] deals with T1, Dihydroorotate dehydrogenase (quinone), mitochondrial (Plasmodium falciparum (isolate 3D7), UniProt Q08210).
T1 sequence (Q08210 whole entry): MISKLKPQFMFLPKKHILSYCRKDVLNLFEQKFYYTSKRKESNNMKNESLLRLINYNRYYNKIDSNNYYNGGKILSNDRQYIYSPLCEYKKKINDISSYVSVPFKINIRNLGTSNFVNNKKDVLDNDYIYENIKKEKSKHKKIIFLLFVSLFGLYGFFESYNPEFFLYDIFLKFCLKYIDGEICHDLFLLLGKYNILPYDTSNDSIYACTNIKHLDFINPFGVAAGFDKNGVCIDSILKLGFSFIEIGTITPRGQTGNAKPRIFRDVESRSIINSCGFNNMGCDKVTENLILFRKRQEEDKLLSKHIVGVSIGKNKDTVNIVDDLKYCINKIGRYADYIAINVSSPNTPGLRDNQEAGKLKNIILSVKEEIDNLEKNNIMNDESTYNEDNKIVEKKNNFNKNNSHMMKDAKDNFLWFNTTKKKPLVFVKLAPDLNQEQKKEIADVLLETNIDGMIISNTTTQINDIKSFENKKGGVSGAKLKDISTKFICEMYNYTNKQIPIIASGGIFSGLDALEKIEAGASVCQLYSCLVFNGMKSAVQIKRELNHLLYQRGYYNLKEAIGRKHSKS
Description: Inhibition of N-terminal His6-tagged recombinant Plasmodium falciparum DHODH (158 to 569 residues) N-terminally truncated soluble domain extracted from Escherichia coli phage resistant BL21-DE3 using CoQD/DHA/DCIP as substrates.

For the next series, the system named is Plasmodium falciparum. As to the kind of experiment: Antiparasitic activity against asexual blood stage Plasmodium falciparum 3D7 incubated for 72 hrs by SYBR Green assay. Particulars: 3D7, 72 h. The series is classed as functional, organism-based.
The target in series [2] is Dihydroorotate dehydrogenase (quinone), mitochondrial (Homo sapiens, UniProt Q02127). Description: Inhibition of C-terminal His6-tagged recombinant human DHODH (29 to 395 residues) N-terminally truncated soluble domain extracted from Escherichia coli phage resistant BL21-DE3 using CoQD/DHA/DCIP as substrates.
A short description of series [3]: Selectivity index, ratio of IC50 for N-terminal His6-tagged recombinant Plasmodium falciparum DHODH (158 to 569 residues) N-terminally truncated soluble domain extracted from Escherichia coli phage resistant BL21-DE3 to IC50 for C-terminal His6-tagged recombinant Plasmodium vivax DHODH (158 to ….
A further series has as its target Albumin (Homo sapiens, UniProt P02768). As to the kind of experiment: Protein binding to albumin (unknown origin) in ALBUMAX medium. Format: ADME. Particulars: read-out: PB (converted).
The nature of series [4]: Oral absorption in overnight-fasted male Sprague-Dawley rat at 3 mg/kg measured upto 72 hrs by LCMS analysis. The series is classed as ADME, organism-based. The settings on record: in vivo.
Series [5] in a line: Half life in overnight-fasted male Sprague-Dawley rat at 3 mg/kg, po or 1 mg/kg, iv measured upto 72 hrs by LCMS analysis. The series is classed as ADME, organism-based. Particulars: in vivo.
The nature of series [6]: Protein binding in human hepatocytes. Format: ADME, cell-based, Hepatocyte. The settings on record: read-out: PB (converted).
Series [7] in a line: Plasma protein binding in human measured for 6 hrs by rapid equilibrium dialysis. Format: ADME, cell-free. Background: In equilibrium dialysis only unbound substance equilibrates across the membrane.
The nature of series [8]: Plasma protein binding in rat measured for 6 hrs by rapid equilibrium dialysis. The series is classed as ADME, cell-free.
A short description of series [9]: Partition coefficient, log D of compound at pH 7.4 measured after 24 hrs by LCMS analysis. The settings on record: octanol/water, pH 7.4, 24 h. Format: physicochemical.
A short description of series [10]: Metabolic stability in human liver microsomes assessed as intrinsic clearance at 0.5 uM incubated for 60 mins in presence of NADPH by tandem quadrupole-Time of Flight MS. Format: ADME, Microsome. The settings on record: 1 h. (In general: Liver microsomes are a subcellular fraction often used to study metabolism.)
A short description of series [11]: Kinetic solubility of compound at pH 6.5 measured after 30 mins by nephelometry. Format: physicochemical. The settings on record: buffer; for solubility kinetic at 0.5 h: pH 6.5, read-out: Kinetic_solubility.
A short description of series [12]: Volume of distribution at steady state in overnight-fasted male Sprague-Dawley rat at 3 mg/kg, po or 1 mg/kg, iv measured upto 72 hrs by LCMS analysis. The series is classed as ADME, organism-based. Particulars: in vivo.
Series [13] in a line: Cytotoxicity against human HepG2 cells by Cell Titer Glo assay. Format: toxicity, cell-based.
Series [14] can be described thus: Drug excretion in Sprague-Dawley rat urine at 1 mg/kg, iv. The series is classed as ADME, organism-based. Particulars: read-out: Drug excretion.
The target in a further series is Cytochrome P450 3A4 (Homo sapiens, UniProt P08684). As to the kind of experiment: Inhibition of CYP3A4 in human liver microsomes. Format: ADME, Microsome.
A further series deals with T2, Cytochrome P450 1A2 (Homo sapiens, UniProt P05177).
T2 sequence (P05177 whole entry): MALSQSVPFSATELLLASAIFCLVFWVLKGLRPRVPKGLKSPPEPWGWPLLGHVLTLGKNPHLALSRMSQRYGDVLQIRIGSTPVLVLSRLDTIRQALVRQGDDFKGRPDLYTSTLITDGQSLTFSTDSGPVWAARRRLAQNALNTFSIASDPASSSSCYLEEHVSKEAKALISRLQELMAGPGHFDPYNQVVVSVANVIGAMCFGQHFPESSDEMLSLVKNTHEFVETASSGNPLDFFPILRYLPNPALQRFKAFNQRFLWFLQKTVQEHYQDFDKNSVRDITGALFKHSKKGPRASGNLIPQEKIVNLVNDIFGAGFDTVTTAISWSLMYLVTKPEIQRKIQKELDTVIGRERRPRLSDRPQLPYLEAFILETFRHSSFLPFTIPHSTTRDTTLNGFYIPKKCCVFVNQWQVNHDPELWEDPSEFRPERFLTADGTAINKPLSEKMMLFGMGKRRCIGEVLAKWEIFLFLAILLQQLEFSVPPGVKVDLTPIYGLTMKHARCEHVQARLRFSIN
Description: Inhibition of CYP1A2 in human liver microsomes. The series is classed as ADME, Microsome.

A short description of series [15]: Permeability across apical to basal side in human Caco-2 cells. The series is classed as ADME, cell-based. (In general: Caco-2 cells form a polarised layer with tight junctions and transporters.)
For the next series, the target named is Cytochrome P450 2D6 (Homo sapiens, UniProt P10635). Description: Inhibition of CYP2D6 in human liver microsomes. Format: ADME, Microsome.
A short description of series [16]: Cytotoxicity against human Jurkat cells by Cell Titer Glo assay. Format: toxicity, cell-based.
The next series deals with T3, Cytochrome P450 2B6 (Homo sapiens, UniProt P20813).
T3 sequence (P20813 whole entry): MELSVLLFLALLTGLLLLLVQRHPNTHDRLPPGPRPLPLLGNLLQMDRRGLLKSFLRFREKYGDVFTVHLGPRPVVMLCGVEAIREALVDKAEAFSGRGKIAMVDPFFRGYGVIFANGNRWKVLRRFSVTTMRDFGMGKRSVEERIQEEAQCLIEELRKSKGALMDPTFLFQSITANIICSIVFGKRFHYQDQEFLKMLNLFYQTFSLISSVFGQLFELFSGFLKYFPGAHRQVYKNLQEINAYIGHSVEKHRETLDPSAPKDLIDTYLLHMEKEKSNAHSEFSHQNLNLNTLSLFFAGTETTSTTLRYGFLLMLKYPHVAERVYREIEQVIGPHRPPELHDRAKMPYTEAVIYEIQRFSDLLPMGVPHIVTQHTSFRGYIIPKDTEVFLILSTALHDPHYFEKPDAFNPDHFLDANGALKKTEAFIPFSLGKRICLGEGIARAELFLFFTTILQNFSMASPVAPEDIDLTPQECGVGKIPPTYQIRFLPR
Description: Inhibition of CYP2B6 in human liver microsomes. Format: ADME, Microsome.

Series [17] in a line: Oral bioavailability in overnight-fasted male Sprague-Dawley rat at 3 mg/kg measured upto 72 hrs by LCMS analysis. Format: ADME, organism-based. The settings on record: in vivo.
The nature of series [18]: Ratio of drug concentration in Sprague-Dawley rat brain to plasma at 1 uM measured for 5 to 60 mins by LCMS analysis. Particulars: time 5-60 min. The series is classed as ADME, cell-free.

Chain of Albumin (P02768 whole entry): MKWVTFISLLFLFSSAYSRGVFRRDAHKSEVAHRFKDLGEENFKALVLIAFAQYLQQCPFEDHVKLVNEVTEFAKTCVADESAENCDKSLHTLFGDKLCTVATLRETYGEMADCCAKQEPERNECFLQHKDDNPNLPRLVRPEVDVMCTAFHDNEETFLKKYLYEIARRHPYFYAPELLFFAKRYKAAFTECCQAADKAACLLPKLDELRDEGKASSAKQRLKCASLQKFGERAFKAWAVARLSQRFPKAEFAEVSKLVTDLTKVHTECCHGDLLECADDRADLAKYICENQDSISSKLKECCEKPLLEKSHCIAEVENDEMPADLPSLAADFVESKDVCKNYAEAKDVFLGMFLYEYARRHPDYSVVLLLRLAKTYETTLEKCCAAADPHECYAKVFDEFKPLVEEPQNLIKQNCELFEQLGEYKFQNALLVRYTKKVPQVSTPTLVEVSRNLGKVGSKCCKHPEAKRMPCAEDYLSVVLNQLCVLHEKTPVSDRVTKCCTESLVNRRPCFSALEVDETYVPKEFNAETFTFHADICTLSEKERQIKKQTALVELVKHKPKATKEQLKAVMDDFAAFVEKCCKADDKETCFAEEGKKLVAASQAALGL
Chain of Dihydroorotate dehydrogenase (quinone), mitochondrial (Homo sapiens, UniProt Q02127) (Q02127 whole entry, the tested form may be a part): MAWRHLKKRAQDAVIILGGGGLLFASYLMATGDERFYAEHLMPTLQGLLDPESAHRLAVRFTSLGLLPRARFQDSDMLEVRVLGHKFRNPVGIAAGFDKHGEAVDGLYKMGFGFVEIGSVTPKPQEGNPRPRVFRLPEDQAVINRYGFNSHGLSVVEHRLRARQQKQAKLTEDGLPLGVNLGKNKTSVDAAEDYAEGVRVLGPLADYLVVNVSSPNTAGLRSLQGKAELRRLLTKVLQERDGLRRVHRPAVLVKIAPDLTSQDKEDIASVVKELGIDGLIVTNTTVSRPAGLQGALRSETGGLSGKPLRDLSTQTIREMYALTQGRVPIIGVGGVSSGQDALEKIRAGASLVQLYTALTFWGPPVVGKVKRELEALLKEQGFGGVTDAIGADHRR
Chain of Cytochrome P450 2D6 (P10635 whole entry): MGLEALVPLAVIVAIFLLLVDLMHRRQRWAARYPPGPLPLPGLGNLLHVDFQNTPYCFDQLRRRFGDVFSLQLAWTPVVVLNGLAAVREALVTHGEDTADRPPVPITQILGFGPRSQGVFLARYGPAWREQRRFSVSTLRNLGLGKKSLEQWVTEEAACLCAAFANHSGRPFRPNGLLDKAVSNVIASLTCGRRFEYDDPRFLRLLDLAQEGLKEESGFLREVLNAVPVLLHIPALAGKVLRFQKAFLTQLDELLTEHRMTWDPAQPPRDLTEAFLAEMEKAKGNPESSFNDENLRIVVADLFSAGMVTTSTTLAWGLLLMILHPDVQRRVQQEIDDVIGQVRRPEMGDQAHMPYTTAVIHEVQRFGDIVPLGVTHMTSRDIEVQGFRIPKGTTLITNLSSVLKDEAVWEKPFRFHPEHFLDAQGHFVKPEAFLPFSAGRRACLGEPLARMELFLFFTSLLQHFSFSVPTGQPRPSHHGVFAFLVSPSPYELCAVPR
Chain of Cytochrome P450 3A4 (P08684 whole entry): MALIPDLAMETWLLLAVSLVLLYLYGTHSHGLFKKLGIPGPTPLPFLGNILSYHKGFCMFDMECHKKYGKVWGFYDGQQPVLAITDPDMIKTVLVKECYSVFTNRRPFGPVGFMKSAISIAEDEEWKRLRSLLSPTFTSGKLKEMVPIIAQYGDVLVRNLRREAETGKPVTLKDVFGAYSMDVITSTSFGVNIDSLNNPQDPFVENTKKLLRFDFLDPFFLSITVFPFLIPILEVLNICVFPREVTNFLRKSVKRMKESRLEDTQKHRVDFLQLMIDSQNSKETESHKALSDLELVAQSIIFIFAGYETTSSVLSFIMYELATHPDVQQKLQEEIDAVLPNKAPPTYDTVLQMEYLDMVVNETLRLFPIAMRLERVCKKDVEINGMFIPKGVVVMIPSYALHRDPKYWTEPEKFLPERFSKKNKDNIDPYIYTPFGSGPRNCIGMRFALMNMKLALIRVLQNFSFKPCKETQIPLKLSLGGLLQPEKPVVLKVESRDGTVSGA

Regarding `CCOC(=O)c1nn(C)c(Cc2ccc(C(F)(F)F)nc2)c1C`, the IC50 in series [1] is 360 nM; in series [2], above 100 µM. The midpoint of the response with Plasmodium falciparum, the EC50, lay at 190 nM. Moreover, the Ratio IC50 in [3] amounted to 4.
As for `Cc1nn(C2CC2)c(=O)c2nn(C)c(Cc3ccc(C(F)(F)F)c(C#N)c3)c12`, the fraction unbound at Albumin was 0.499. The compound also showed a Fa at 72 h in [4] of 15%. Moreover, the t1/2 in series [5] was determined as 31 h.
As to `CC[C@@](O)(c1cnc(C(F)(F)F)c(Cl)c1)c1c2ccn(C3CC3)c(=O)c2nn1C`, the fraction unbound was 0.676 in [6] and 0.511 at Albumin. Besides, the EC50 with Plasmodium falciparum was 1 nM. The same compound showed a Fa at 72 h in series [4] of 67%. Besides, the PPB in series [7] turned out to be 94%; in series [8] it was 89.4%. In addition, in [9], the logD is 2.4. Besides, in series [10], the “intrinsic clearance (CLint)” value was below 3 µL/min/mg. Also, the solubility kinetic at 0.5 h in series [11] worked out at 40 µM (≈ 17.1 µg/mL). The same compound had a Vdss in series [12] of 1.22 L/kg.
In the case of `Cn1nc2c(=O)n(C3CC3)ncc2c1[C@](O)(c1cnc(C(F)(F)F)c(Cl)c1)C(F)(F)F`, the fraction unbound is 0.342 in series [6] and 0.319 at Albumin. For the same compound, the CC50 in series [13] and in series [16] was above 20 µM throughout. In [14], the dose excreted was below 1%. Further, the IC50 at Cytochrome P450 3A4 is above 20 µM; against Cytochrome P450 1A2 it was above 20 µM; against Cytochrome P450 2D6, above 20 µM; against Cytochrome P450 2B6, above 20 µM; in series [2], above 30 µM. In addition, a half-maximal response in the series with Plasmodium falciparum (EC50) required 3 nM. The permeability result in [15] is recorded as “Permeable”. Moreover, in [4], the Fa at 72 h was 94%. In series [5], the t1/2 is 23 h. The PPB is recorded as 99.1% in series [7] and 97.3% in series [8]. This compound returned a F in [17] above 100%. Besides, the “intrinsic clearance (CLint)” value in series [10] is below 3 µL/min/mg. Besides, the solubility kinetic at 0.5 h in [11] worked out at 20 µM (≈ 9.36 µg/mL).
On to `CC[C@@](N)(c1cnc(C(F)(F)F)c(Cl)c1)c1c2ncn(C3CC3)c(=O)c2nn1C`, for which the figures for the fraction unbound (in series [6]; on Albumin) were 0.589 and 0.703, respectively. The CC50 in series [13] and in series [16] was above 20 µM in each case. Moreover, the dose excreted in series [14] was below 1%. Also, the IC50 against Cytochrome P450 3A4 was above 20 µM; in series [1], 38 nM; on Cytochrome P450 1A2, above 20 µM; against Cytochrome P450 2D6 it was above 20 µM; against Cytochrome P450 2B6, above 20 µM; in [2], above 30 µM. This compound returned an EC50 in the series on Plasmodium falciparum of 7 nM. For the same compound, the Fa at 72 h in series [4] is 64%. The F in series [17] was 79%. Also, the logD in [9] came to 3.44. For the same compound, the “intrinsic clearance (CLint)” value in series [10] is below 3 µL/min/mg. Further, the solubility kinetic at 0.5 h in series [11] came to 80 µM (≈ 34.1 µg/mL).
As for `CCn1ccc2c([C@](O)(c3cnc(C(F)(F)F)c(Cl)c3)C3CC3)n(C)nc2c1=O`, the BPR in [18] is 0.84. Besides, the midpoint of the response in the series with Plasmodium falciparum, the EC50, lay at 2 nM. For the same compound, the PPB in [7] turned out to be 70.4%; in series [8], 64%. Also, the IC50 in series [2] is above 100 µM. Further, the “intrinsic clearance (CLint)” value in series [10] is 3.2 µL/min/mg. Further, the solubility kinetic at 0.5 h in series [11] was determined as 40 µM (≈ 17.1 µg/mL).
As to `CC[C@@](N)(c1cnc(C(F)(F)F)c(Cl)c1)c1c2ccn(C3CC3)c(=O)c2nn1C`, the figures for the fraction unbound (in [6]; at Albumin) were 0.574 and 0.63, respectively. Moreover, the BPR in [18] stood at 0.73. In the series with Plasmodium falciparum, this compound gave an EC50 of 3 nM. Further, in series [4], the Fa at 72 h is 82%. In [5], this compound showed a t1/2 of 15 h. Besides, in [17], the F was 4%. In addition, the “intrinsic clearance (CLint)” value in series [10] is below 3 µL/min/mg. In series [11] (pH 6.5, 0.5 h), this compound came in with a Kinetic_solubility above 100 µM.

Broadly, the IC50 is the midpoint of a concentration-inhibition curve. What is called EC50 is the concentration that produces a half-maximal response. Low readings indicate a more potent agent, high ones a less potent agent. Usually logD stands for lipophilicity at a set pH, counting ionised and neutral species. A higher logD goes with higher lipophilicity. A word on the CC50: it is the concentration at which the toxic effect on the cells reaches its halfway point. A higher CC50 goes with lower toxicity to the cells.
